Assay results from article PMC9304199, “A small molecule CFTR potentiator restores ATP‐dependent channel gating to the cystic fibrosis mutant G551D‐CFTR” (British Journal of Pharmacology, 2022).
Where two headings read alike, the source gives them in different places.

Biological target: G551D‐CFTR (Homo sapiens, UniProt P13569, G551D)
Experiment: Single-channel recording in excised inside-out membrane patches, G551D‐CFTR
Type: biochemical
Parameters: expressed in transfected cells; BHK cells from MD Amaral
Settings: for enhancement of Po(app): each compound 10 μM, alone or together; for Emax: read-out: Maximal effect (%) (95% CI)
Method: For CFTR studies using automated electrophysiology and single-channel recording, we used baby hamster kidney (BHK) cells (RRID:CVCL_1915) and human embryonic kidney (HEK) 293 cells (RRID:CVCL_0045) stably expressing wild-type human CFTR and the CFTR variants F508del- and […] et al., [2002]; Xu et al., [2014]). […] HEK cells expressing CFTR variants were generated using the Flp-InTM system as described above for F508del- and G551D-CFTR-expressing FRT cells. They were cultured in Dulbecco's modified Eagle's medium (glucose, 1.5 g·L^-1; sodium pyruvate, 110 mg·L^-1) supplemented with 10% FBS (PAA Laboratories), GlutaMAXTM and hygromycin-B (150 μg·ml^-1; InvitrogenTM, Thermo Fisher Scientific) at 37°C in a humidified atmosphere with 5% CO2. Prior to study, F508del-CFTR expressed in HEK cells was trafficked to the plasma membrane by low temperature incubation (27°C for 24-72 h). The single-channel behaviour of human CFTR in excised membrane patches from different mammalian cell lines heterologously expressing CFTR is equivalent (wild-type CFTR, Chen et al., [2009]; F508del-CFTR, Bose et al., [2019]; and G551D-CFTR, J Liu, Y Wang, Z Cai, and DN Sheppard, unpublished observations). CFTR Cl^- channels were recorded in excised inside-out membrane patches using an Axopatch 200B patch-clamp amplifier and pCLAMP software (version 10.3) (RRID:SCR_011323) (both from Molecular Devices, San Jose, CA, USA) (Sheppard & Robinson, [1997]). […] Within 2 min after membrane patch excision, we added the catalytic subunit of protein kinase A (PKA; 75 nM) and ATP (1 mM) to the intracellular solution to activate CFTR Cl^- channels. To minimise channel rundown, we added PKA and millimolar concentrations of ATP to all intracellular solutions and clamped voltage at -50 mV. […] We reduced the ATP concentration when testing CFTR potentiators on wild-type CFTR to observe their effects more clearly. […] Instead, specific interventions with CFTR potentiators were compared with the pre-intervention control period made with the same concentration of ATP and PKA, but without test compounds. […] F508del-CFTR, n ≤ 4; G551D-CFTR, n ≤ 5). To determine channel number, we used the maximum number of simultaneous channel openings observed during an experiment (Cai et al., [2006]). To minimise errors, we used experimental conditions that robustly potentiate channel activity and verified that recordings were of sufficient length to ascertain the correct number of channels ([…] et al., [1994]). […] Despite our precautions, we cannot exclude the possibility of unobserved G551D-CFTR Cl^- channels in excised membrane patches causing Po values for G551D-CFTR to be […]. Therefore, Po values for G551D-CFTR are expressed as apparent Po (Po(app)) values. Single-channel currents were directly acquired to a computer hard disc after filtering at a corner frequency (f c) of 500 Hz with an eight-pole Bessel filter (model LHBF-48×; npi electronic GmbH, Tamm, Germany) and digitising at a sampling rate of 5 kHz using a Digidata 1440A interface (Molecular Devices) and pCLAMP software. To measure single-channel current amplitude (i), Gaussian distributions were fit to current amplitude histograms. For Po and burst analyses, lists of open- and closed-times were created using a half-amplitude crossing criterion for event detection and dwell-time histograms constructed as previously described (Sheppard & Robinson, [1997]); transitions < 1 ms were excluded from the analysis (eight-pole Bessel filter rise time [T 10-90] ~ 0.73 ms at f c = 500 Hz). Histograms were fitted with one or more component exponential functions using the maximum likelihood method. […] The mean interburst interval (TIBI) was calculated using the equation (Cai et al., [2006]): (1) Po=Tb/TMBD+TIBI, where T b = (mean burst duration) × (open probability within a burst). Mean burst duration (T MBD) and open probability within a burst (Po[burst]) were determined directly from experimental data using pCLAMP software. […]

[1] = G551D‐CFTR Cl− channels, excised inside-out patches, 23°C, data normalised to ivacaftor 1 μM, read-out: EC50 (μM) (95% CI)
[2] = G551D‐CFTR, ATP 1 mM, PKA 75 nM, ~23°C
[3] = G551D‐CFTR, ATP 1 mM, PKA 75 nM, ~23°C, read-out: EC50 for potentiation of Po(app)
[4] = G551D‐CFTR, compound 10 μM, ATP 0.1–3 mM

Sequence of G551D‐CFTR (P13569 whole entry G551D): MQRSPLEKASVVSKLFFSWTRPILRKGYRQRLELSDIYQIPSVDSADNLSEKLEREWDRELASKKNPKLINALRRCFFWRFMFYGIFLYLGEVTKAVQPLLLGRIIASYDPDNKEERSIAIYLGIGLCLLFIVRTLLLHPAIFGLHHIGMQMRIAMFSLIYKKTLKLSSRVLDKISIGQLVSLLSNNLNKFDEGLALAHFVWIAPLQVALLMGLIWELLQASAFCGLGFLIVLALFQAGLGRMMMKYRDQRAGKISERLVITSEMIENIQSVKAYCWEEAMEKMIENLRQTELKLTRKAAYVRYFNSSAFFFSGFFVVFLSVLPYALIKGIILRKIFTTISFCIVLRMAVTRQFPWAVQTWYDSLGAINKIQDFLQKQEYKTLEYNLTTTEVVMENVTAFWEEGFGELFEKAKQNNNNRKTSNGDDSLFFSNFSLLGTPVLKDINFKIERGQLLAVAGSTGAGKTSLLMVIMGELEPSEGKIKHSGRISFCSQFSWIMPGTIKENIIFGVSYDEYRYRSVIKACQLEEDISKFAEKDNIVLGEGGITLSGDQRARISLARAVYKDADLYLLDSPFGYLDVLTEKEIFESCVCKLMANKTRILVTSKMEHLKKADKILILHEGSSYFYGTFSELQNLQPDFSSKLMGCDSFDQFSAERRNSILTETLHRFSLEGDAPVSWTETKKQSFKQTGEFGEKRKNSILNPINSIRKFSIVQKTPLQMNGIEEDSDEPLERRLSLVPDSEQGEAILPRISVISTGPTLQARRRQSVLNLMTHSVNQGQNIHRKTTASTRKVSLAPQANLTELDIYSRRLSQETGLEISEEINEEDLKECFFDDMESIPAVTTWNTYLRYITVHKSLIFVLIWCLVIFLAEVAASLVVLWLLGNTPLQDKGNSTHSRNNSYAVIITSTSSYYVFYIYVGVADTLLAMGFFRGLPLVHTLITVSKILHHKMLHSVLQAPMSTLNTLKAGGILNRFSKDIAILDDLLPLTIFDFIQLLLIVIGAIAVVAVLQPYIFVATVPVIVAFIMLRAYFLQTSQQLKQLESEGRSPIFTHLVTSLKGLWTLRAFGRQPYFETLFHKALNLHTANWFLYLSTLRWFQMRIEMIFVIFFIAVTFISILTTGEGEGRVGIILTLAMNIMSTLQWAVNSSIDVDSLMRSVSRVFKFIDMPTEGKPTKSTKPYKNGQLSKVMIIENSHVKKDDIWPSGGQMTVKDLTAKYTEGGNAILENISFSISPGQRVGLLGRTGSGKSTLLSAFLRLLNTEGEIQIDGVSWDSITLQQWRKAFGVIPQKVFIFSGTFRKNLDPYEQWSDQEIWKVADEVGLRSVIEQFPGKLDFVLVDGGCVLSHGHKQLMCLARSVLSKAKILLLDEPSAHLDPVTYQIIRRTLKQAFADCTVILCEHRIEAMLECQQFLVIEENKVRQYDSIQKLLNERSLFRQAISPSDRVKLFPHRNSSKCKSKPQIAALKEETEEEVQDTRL

SMILES: CC(C)(C)c1cc(C(C)(C)C)c(NC(=O)c2c[nH]c3ccccc3c2=O)cc1O [ivacaftor, reference compound]
- EC50 [1]: 0.036 µM
- Po(app) max [2]: 0.31
- EC50 [3]: 0.14 µM
- ATP-dependence of G551D‐CFTR activity in presence of compound [4]: unaffected by altering the ATP concentration
- enhancement of Po(app) (G551D‐CFTR, ATP 1 mM): 44 ± 12 fold
- Emax: 96.7%

SMILES: Cc1ncccc1CNC(=O)c1ccc2c(c1)CC[C@H]1C[C@](O)(CCC(F)(F)F)CC[C@]21Cc1ccccc1 (racemic) [CP‐628006, rac‐(4bR,7R,8aS)‐4b‐benzyl‐7‐hydroxy‐N‐((2‐methylpyridin‐3‐yl)methyl)‐7‐(3,3,3‐trifluoropropyl)‐4b,5,6,7,8,8a,9,10‐octahydrophenanthrene‐2‐carboxamide]
- EC50 [1]: 0.17 µM
- Po(app) max [2]: 0.38
- EC50 [3]: 0.38 µM
- Po(app) max of ATP-dependence in presence of compound [4]: 0.30
- enhancement of Po(app) (G551D‐CFTR, ATP 1 mM): 71 ± 30 fold
- Emax: 145%
